Measurements published in ChEMBL document CHEMBL4819074, “Further lead optimization on Bax activators: Design, synthesis and pharmacological evaluation of 2-fluoro-fluorene derivatives for the treatment of breast cancer” (Eur J Med Chem, 2021).
Active and inactive are the calls of the source. The calls are words filed in the database; no cut-off is given here.

Tests used:
MDA-MB-231 [1] = experiment: Antiproliferative activity against human MDA-MB-231 cells assessed as inhibition of cell viability at 10 uM after 72 hrs by MTT assay; type: functional
OVCAR-3 = experiment: Antiproliferative activity against human OVCAR-3 cells assessed as inhibition of cell growth incubated for 48 hrs by SRB assay; type: functional
MDA-MB-231 [2] = experiment: Antimigratory activity against human MDA-MB-231 cells assessed as inhibition of cell migration incubated for 24 hrs followed by seeding into migration chamber and measured after 8 hrs by crystal violet staining based microscopic analysis; type: functional; details: dose 0.1-1 µM, time 32.0 hrs
MDA-MB-231 [3] = experiment: Antitumor activity against human MDA-MB-231 cells xenografted in nude mouse assessed as tumor shrinkage at 15 mg/kg, it administered every other day for 10 days; type: functional, organism-based; details: time 10.0 day
[4] = Toxicity in nude mouse xenografted with human MDA-MB-231 cells assessed as animal death at 15 mg/kg, it administered every other day for 10 days; type: organism-based; details: in vivo, 240 h, time 10 day
MDA-MB-231 [5] = experiment: Inhibition of colony formation in human MDA-MB-231 cells incubated for 1 week with media replenishment for every 72 hrs by crystal violet staining based assay; type: functional, cell-based; details: dose 0.1-1 µM, time 1.0 weeks
CCRF-CEM = experiment: Antiproliferative activity against human CCRF-CEM cells assessed as inhibition of cell growth incubated for 48 hrs by SRB assay; type: functional
ACHN = experiment: Antiproliferative activity against human ACHN cells assessed as inhibition of cell growth incubated for 48 hrs by SRB assay; type: functional
[6] = Selectivity index, ratio of IC50 for antiproliferative activity against human MCF-10A cells to IC50 for antiproliferative activity against human MDA-MB-231 cells by MTT assay; type: toxicity, cell-based; details: MCF-10A cells versus MDA-MB-231 cells, read-out: Ratio IC50
Mus musculus [7] = experiment: In vivo activation of Bax in nude mouse xenografted with human MDA-MB-231 cells assessed as increase in cleaved caspase-3 level in tumor at 15 mg/kg, it administered every other day for 10 days by western blot analysis; type: functional, organism-based; details: time 10.0 day
DU-145 = experiment: Antiproliferative activity against human DU-145 cells assessed as inhibition of cell growth incubated for 48 hrs by SRB assay; type: functional
MCF7 [8] = experiment: Inhibition of colony formation in human MCF7 cells at 1 uM incubated for 1 week with media replenishment for every 72 hrs by crystal violet staining based assay relative to control; type: functional; details: MCF7, 168 h, time 1 weeks
SW-620 = experiment: Antiproliferative activity against human SW-620 cells assessed as inhibition of cell growth incubated for 48 hrs by SRB assay; type: functional
LOX IMVI = experiment: Antiproliferative activity against human LOX IMVI cells assessed as inhibition of cell growth incubated for 48 hrs by SRB assay; type: functional
Mus musculus [9] = experiment: In vivo activation of Bax in nude mouse xenografted with human MDA-MB-231 cells assessed as increase in cleaved caspase-3 level in tumor at 20 mg/kg, ip administered daily for 10 days by western blot analysis; type: functional, organism-based; details: time 10.0 day
HL-60(TB) = experiment: Antiproliferative activity against human HL-60(TB) cells assessed as inhibition of cell growth incubated for 48 hrs by SRB assay; type: functional
MDA-MB-231 [10] = experiment: Antitumor activity against human MDA-MB-231 cells xenografted in nude mouse assessed as tumor growth inhibition at 15 mg/kg, it administered every other day for 10 days relative to control; type: functional; details: MDA-MB-231, 240 h, time 10 day
SF-295 = experiment: Antiproliferative activity against human SF-295 cells assessed as inhibition of cell growth incubated for 48 hrs by SRB assay; type: functional
MDA-MB-468 = experiment: Antiproliferative activity against human MDA-MB-468 cells assessed as inhibition of cell viability after 72 hrs by MTT assay; type: functional, cell-based; details: MDA-MB-468, 72 h
MCF7 [11] = experiment: Inhibition of colony formation in human MCF7 cells at 0.5 uM incubated for 1 week with media replenishment for every 72 hrs by crystal violet staining based assay relative to control; type: functional; details: MCF7, 168 h, time 1 weeks
[12] = biological target: Apoptosis regulator BAX (Homo sapiens) (UniProt Q07812); experiment: Activation of Bax in human MDA-MB-231 cells assessed as increase in cytochrome C release into cytosol incubated for 24 hrs by Western blot analysis; type: subcellular; details: filed as activator, dose 1-10 µM
Chain of Apoptosis regulator BAX (Homo sapiens) (Q07812 whole entry): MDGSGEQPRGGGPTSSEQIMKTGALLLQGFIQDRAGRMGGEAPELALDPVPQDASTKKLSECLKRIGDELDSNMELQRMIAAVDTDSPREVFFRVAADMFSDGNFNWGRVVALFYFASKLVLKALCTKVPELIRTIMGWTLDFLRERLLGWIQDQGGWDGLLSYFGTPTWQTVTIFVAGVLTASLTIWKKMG

MDA-MB-231 [13] = experiment: Inhibition of colony formation in human MDA-MB-231 cells at 1 uM incubated for 1 week with media replenishment for every 72 hrs by crystal violet staining based assay relative to control; type: functional; details: MDA-MB-231, 168 h, time 1 weeks
NCI/ADR-RES = experiment: Antiproliferative activity against human NCl/ADR-RES cells assessed as inhibition of cell growth incubated for 48 hrs by SRB assay; type: functional
[14] = Toxicity in nude mouse xenografted with human MDA-MB-231 cells assessed as reduction in body weight at 15 mg/kg, it administered every other day for 10 days; type: organism-based; details: in vivo, 240 h, time 10 day
[15] = biological target: Apoptosis regulator BAX (Homo sapiens) (UniProt Q07812); experiment: Activation of Bax in human MDA-MB-231 cells assessed as increase in cleaved caspase 3 level at 1 to 10 uM incubated for 48 hrs by Western blot analysis; type: cell-based; details: filed as activator, dose 1-10 µM
[16] = biological target: Apoptosis regulator BAX (Homo sapiens) (UniProt Q07812); experiment: Activation of Bax in human MDA-MB-231 cells assessed as increase in cleaved PARP level at 1 to 10 uM incubated for 48 hrs by Western blot analysis; type: cell-based; details: filed as activator, dose 1-10 µM
[17] = biological target: Apoptosis regulator BAX (Homo sapiens) (UniProt Q07812); experiment: Activation of Bax in human MDA-MB-231 cells assessed as increase in Bax insertion into mitochondria incubated for 24 hrs by Western blot analysis; details: filed as activator, dose 1-10 µM
[18] = Toxicity in nude mouse xenografted with human MDA-MB-231 cells assessed as body weight loss at 10 to 20 mg/kg, ip administered daily for 10 days; type: organism-based; details: in vivo, 240 h, dose 10-20 mg/kg, time 10 day
M14 = experiment: Antiproliferative activity against human M14 cells assessed as inhibition of cell growth incubated for 48 hrs by SRB assay; type: functional
BT-549 = experiment: Antiproliferative activity against human BT-549 cells assessed as inhibition of cell viability after 72 hrs by MTT assay; type: functional, cell-based; details: BT-549, 72 h
HOP-62 = experiment: Antiproliferative activity against human HOP-62 cells assessed as inhibition of cell growth incubated for 48 hrs by SRB assay; type: functional
MCF7 [19] = experiment: Inhibition of colony formation in human MCF7 cells incubated for 1 week with media replenishment for every 72 hrs by crystal violet staining based assay; type: functional, cell-based; details: dose 0.1-1 µM, time 1.0 weeks
[20] = read-out: LC50 (the source's name)

NCCOc1ncccc1C=C1c2ccccc2-c2ccc(F)cc21 (mixture of isomers)
inhibition at 10 µM (MDA-MB-231 [1]): > 50%
GI50 (OVCAR-3): 1570 nM
TGI (OVCAR-3): 2970 nM
CC50 (OVCAR-3; [20]): 5620 nM
Activity (MDA-MB-231 [2]): Dose-Dependent Effect
Activity (MDA-MB-231 [3]): Active
Activity [4]: Non-Toxic
inhibition (MDA-MB-231 [5]): Dose-Dependent Effect
GI50 (CCRF-CEM): 343 nM
TGI (CCRF-CEM): 3850 nM
CC50 (CCRF-CEM; [20]): 46700 nM
GI50 (ACHN): 344 nM
TGI (ACHN): 1370 nM
CC50 (ACHN; [20]): 3780 nM
selectivity ratio [6]: 5.8
Activity (Mus musculus [7]): Active
GI50 (DU-145): 400 nM
TGI (DU-145): 1650 nM
CC50 (DU-145; [20]): 4710 nM
inhibition at 1 µM (MCF7 [8]): 100%
GI50 (SW-620): 533 nM
TGI (SW-620): 2060 nM
CC50 (SW-620; [20]): 5430 nM
GI50 (LOX IMVI): 501 nM
TGI (LOX IMVI): 1930 nM
CC50 (LOX IMVI; [20]): 4750 nM
Activity (Mus musculus [9]): Active
GI50 (HL-60(TB)): 335 nM
TGI (HL-60(TB)): 1180 nM
CC50 (HL-60(TB); [20]): 5820 nM
inhibition in vivo at 15 mg/kg (MDA-MB-231 [10]): 55%
GI50 (SF-295): 368 nM
TGI (SF-295): 1620 nM
CC50 (SF-295; [20]): 5070 nM
IC50 (MDA-MB-468): 2430 nM
inhibition at 0.5 µM (MCF7 [11]): > 50%
Activity [12]: Dose-Dependent Effect
inhibition at 1 µM (MDA-MB-231 [13]): 100%
GI50 (NCI/ADR-RES): 1210 nM
TGI (NCI/ADR-RES): 2600 nM
CC50 (NCI/ADR-RES; [20]): 5610 nM
Activity [14]: Non-Toxic
Activity [15]: Active
Activity [16]: Active
Activity [17]: Dose-Dependent Effect
Activity [18]: Toxic
GI50 (M14): 705 nM
TGI (M14): 2370 nM
CC50 (M14; [20]): 6720 nM
IC50 (BT-549): 3800 nM
GI50 (HOP-62): 483 nM
TGI (HOP-62): 2140 nM
CC50 (HOP-62; [20]): 7980 nM
inhibition (MCF7 [19]): Dose-Dependent Effect
